Test results as given in PMC9170106, “Pre-clinical evaluation of LASSBio-1491: From in vitro pharmacokinetic study to in vivo leishmanicidal activity” (PLoS ONE, 2022).
Values belong to the compound of their own block, whether it stands above or below them.

Legend:
[1] = PAMPA-GIT permeability; conditions: for Classification / Fa experimental: GIT-PAMPA; for Fa experimental: absorbed fraction
Excerpt: (§1) The parallel artificial membrane permeability assay uses 96-well plate in a “sandwich” type system, where one plate overlaps the other (PAMPA). […] The lipid mixture that impregnates the PVDF filter has a different constitution for the permeability tests for the blood-brain barrier (Brain lipid from pig extract in dodecane) and gastro-intestinal tract (L-α soy phosphatidylcholine in dodecane). In the PAMPA BBB and TGI assays, the optical density values obtained in the reading at each selected wavelength, for each of the compounds were analyzed in comparison with the values of several controls. In the case of the BBB, these values were used to elaborate an equation and determine the permeability coefficient (Pe), using a previously elaborated spreadsheet, and, for the TGI, these values were used to determine the absorbed fraction (Fa%), both using the Excel® program.

[2] = GIT-PAMPA, ref literature, cited from earlier work; for Fa literature: absorbed fraction
[3] = PAMPA-BBB permeability; conditions: for Classification: PAMPA-BBB
Excerpt: as §1

[4] = system: spleen cells; test: Cytotoxicity against spleen cells (propidium iodide); conditions: Mus musculus, 24 h
Method: To carry out the suspension preparation of spleen cells, BALB/c mice were euthanized, and an incision was made to remove the spleen. The spleens were macerated using the end of the plungers from a 1 mL syringe in a 70 μm strainer placed in a Petri dish containing RPMI medium. […] After incubation for 4 min at room temperature, the cells were washed with RPMI medium. Subsequently, samples from three animals were pooled and the cell suspension was passed through a 40 μm strainer. Cells were counted in a Neubauer chamber and splenocytes were plated at a concentration of 5 x 10^5 cells per well in a 96-well culture plate. […] Moreover, spleen cells were also cultured just with medium (free of compounds or vehicle) or with DMSO 0.1%. […] After, the propidium iodide incorporation was performed according to the instructions of the Propidium Iodide Kit (Sigma, Copenhagen, Denmark). The splenocytes were analyzed in a FACS Canto II flow cytometer. The data files were saved using FACS Diva software and data analysis was done using Flow Jo software. […] Data obtained from experiments were expressed as the mean ± standard error of the mean (S.E.M.) of spleen died cells and statistical differences between the treated and the vehicle groups of experiments were evaluated by ANOVA and Dunnett hoc tests.

[5] = system: peritoneal macrophages infected with L. major LV39; test: Nitrite measurement (Griess reaction) in infected macrophages; format: cell-based, BALB/c mice; conditions: BALB/c macrophages infected with L. major LV39
Method: Briefly, female BALB/c mice (6 to 8 weeks old) received 1 mL sterile of 3% sodium thioglycolate by intraperitoneal route (i.p.) and were euthanized after 4 days. The intraperitoneal lavage was collected from the peritoneal cavity of mice using sterile PBS and cells were counted in a hemocytometer. Peritoneal adherent cells (macrophages) were plated at a concentration of 2 x 10^5 cells per well in 24-well culture plates containing glass coverslips. Subsequently, L. major promastigotes (harvested after the third passage) were added at a concentration of 2 x 10^6 parasites per well, aiming to infect the macrophages. […] After 24 hours in an incubator at 37 °C and 5% CO2, the coverslips were washed with PBS and stained with Giemsa-May Grünwald. The number of amastigotes in 100 macrophages was determined by counting using optical microscope (100x objective). Furthermore, the cell culture supernatant was also collected for nitrite measurement using the Griess reaction, an indirect way of determining the concentration of nitric oxide in the supernatant of infected macrophages from the experimental groups. The results obtained were expressed as the mean ± S.E.M. of the number of amastigotes or nitrite concentration from duplicate cultures of representative assays, with the data analyzed by ANOVA and Dunnett hoc tests, considering a significance level of p < 0.05. […]

[6] = system: L. major amasitigote 5-ASKH substrain; test: In vitro activity against intramacrophage amastigotes, 5-ASKH; format: cell-based; conditions: Leishmania major
Method: (§2) Briefly, female BALB/c mice (6 to 8 weeks old) received 1 mL sterile of 3% sodium thioglycolate by intraperitoneal route (i.p.) and were euthanized after 4 days. The intraperitoneal lavage was collected from the peritoneal cavity of mice using sterile PBS and cells were counted in a hemocytometer. Peritoneal adherent cells (macrophages) were plated at a concentration of 2 x 10^5 cells per well in 24-well culture plates containing glass coverslips. Subsequently, L. major promastigotes (harvested after the third passage) were added at a concentration of 2 x 10^6 parasites per well, aiming to infect the macrophages. […] After 24 hours in an incubator at 37 °C and 5% CO2, the coverslips were washed with PBS and stained with Giemsa-May Grünwald. The number of amastigotes in 100 macrophages was determined by counting using optical microscope (100x objective). Furthermore, the cell culture supernatant was also collected for nitrite measurement using the Griess reaction, an indirect way of determining the concentration of nitric oxide in the supernatant of infected macrophages from the experimental groups. The results obtained were expressed as the mean ± S.E.M. of the number of amastigotes or nitrite concentration from duplicate cultures of representative assays, with the data analyzed by ANOVA and Dunnett hoc tests, considering a significance level of p < 0.05. In addition, the linear regression analysis from the Kc values at employed concentrations was used to determine the IC50.

[7] = system: L. major promastigote 5-ASKH substrain; test: In vitro activity against promastigotes, 5-ASKH; format: cell-based, Leishmania major; conditions: Leishmania major
Method: (§3) L. major promastigotes LV39 (MRHO/SU/59/P) were obtained from João […] Preto Medical School- USP. L. major IOC/[…] promastigotes (MHOM/SU/1973/5-ASKH) were obtained from Leishmania collection of the Oswaldo Cruz Institute-Fiocruz. L. major promastigotes LV39 (MRHO/SU/59/P) and L. major IOC/[…] (MHOM/SU/1973/5-ASKH) were grown in a Schneider's medium (Sigma-Aldrich, St. […] The determination of the leishmanicidal activity of LASSBio-1491 against L. major promastigotes was carried out according to the methodology described by […] and colleagues (1996). […] After 48h of incubation in a Biochemical Oxygen Demand (B.O.D.) incubator, the promastigotes were counted using a hemocytometer. The results obtained were expressed as the mean ± S.E.M. of the number of promastigotes from triplicate cultures of representative assays, with the data analyzed by ANOVA and Dunnett hoc tests, considering a significance level of p < 0.05.

[8] = system: L. major amastigote LV39 substrain; test: In vitro activity against intramacrophage amastigotes, LV39; format: cell-based; conditions: Leishmania major
Method: as §2

[9] = system: L. major promastigote LV39 substrain; test: In vitro activity against promastigotes, LV39; format: cell-based; conditions: Leishmania major
Method: as §3

[10] = system: L. major LV39; test: In vivo activity against Leishmania major LV39 substrain; design: species or system BALB/c mice; conditions: LASSBio-1491 10 μmol/Kg/day, glucantime 30 μmol/Kg/day x 28 days, i.p.
Method: Thus, 6-week-old female BALB/c mice weighing approximately 20 g were used. […] Briefly, ketamine (80mg/kg) and xylazine (8 mg/kg) were simultaneously used to anesthetize the mice by intraperitoneal injection. The promastigotes of L. major LV39 substrain in the stationary phase, harvested after the third passage (obtained from parasites frozen), were inoculated subcutaneously at a concentration of 1x 10^5 parasites in the right ear of mice. […] The size of the lesions was measured using a pachymeter. Thiopental (150 mg/kg, i.p.) was used to euthanize the mice and the quantitative limiting-dilution assay was used to determine the parasite burden of infected ears and draining lymph nodes. The results obtained from experiments were expressed as the mean ± S.E.M. with the data analyzed (size of the lesions or parasite burden) by ANOVA and Dunnett hoc tests, considering a significance level of p < 0.05.

Compound: CC(C)NCC(O)COc1ccc(CC(N)=O)cc1 (stereo not drawn) [Atenolol]
Fa experimental [1]: 2.26% | Fa literature [2]: 5.2%

Compound: Cn1c(=O)c2c(ncn2C)n(C)c1=O [Caffeine, reference compound]
Papp ([3]; PAMPA): 0.81 ×10⁻⁶ cm/s | Classification [3]: CNS -

Compound: O=C(O)Cc1ccccc1Nc1c(Cl)cccc1Cl [Diclofenac]
Classification [1]: High (high intestinal permeability (70–100%)) | Fa experimental [1]: 99.28% | Fa literature [2]: 100% | Pe literature [2]: 12.5 10^−6 cm s^-1

Compound: CCn1cc(C(=O)O)c(=O)c2cc(F)c(N3CCNCC3)cc21 [Norfloxacin]
Papp ([1]; PAMPA): 0.7 ×10⁻⁶ cm/s

Compound: N=C(N)c1ccc(OCCCCCOc2ccc(C(=N)N)cc2)cc1 [Pentamidine, reference compound]
IC50 [4]: > 100 µM | NO production (nitrite) [5]: did not | IC50 ([6]; Macrophage, amastigote 5-ASKH in macrophages, 24 h): 17.1 ± 5.6 µM | Emax ([6]; amastigote 5-ASKH, read-out: Maximum effect (% ± S.E.M.)): 53.8 ± 1.1% | IC50 ([7]; 48 h): 0.8 ± 0.1 µM | Emax ([7]; read-out: Maximum effect (% ± S.E.M.)): 72.6 ± 2% | IC50 ([8]; Macrophage, amastigote LV39 in macrophages, 24 h): 8.1 ± 0.9 µM | Emax ([8]; amastigote LV39, read-out: Maximum effect (% ± S.E.M.)): 63.2 ± 2.9% | IC50 ([9]; promastigote LV39, 48 h): 5.7 ± 0.2 µM | Emax ([9]; promastigote LV39, read-out: Maximum effect (% ± S.E.M.)): 88.1 ± 0.1%

Compound: CNC(=C[N+](=O)[O-])NCCSCc1ccc(CN(C)C)o1 [Ranitidine]
Classification [1]: Medium (medium permeability (30–69%)) | Fa experimental [1]: 38.29%

Compound: O=C(O)c1cc(/N=N/c2ccc(S(=O)(=O)Nc3ccccn3)cc2)ccc1O [Sulfasalazine]
Fa literature [2]: 42% | Pe literature [2]: 0.3 10^−6 cm s^-1

Compound: meglumine antimoniate [glucantime, reference compound]
lesion size [10]: reduced lesion size only between days 7 and 17 | parasite load in draining lymph node [10]: reduce the parasite load | parasite load in infected ear [10]: reduce the parasite load

Second part, led by results:

Classification [1]: Low (low permeability (0–29%)) | Fa experimental [1]: 1.70%
Compound: Nc1nc2c(ncn2COCCO)c(=O)[nH]1 [Acyclovir]

Classification [1]: Low (low permeability (0–29%)) | Fa experimental [1]: 1.37%
Compound: CO/N=C(\C(=O)N[C@@H]1C(=O)N2C(C(=O)O)=C(CSc3nc(=O)c(=O)[nH]n3C)CS[C@H]12)c1csc(N)n1 [Ceftriaxone]
Fa literature [2]: 1% | Pe literature [2]: 0.1 10^−6 cm s^-1

Classification [3]: CNS -
Compound: CCn1cc(C(=O)O)c(=O)c2cc(F)c(N3CCNCC3)nc21 [Enoxacin, reference compound]
